Here are results for 2 molecules from patent US7776902B2, “Nitrooxyderivatives of cyclooxygenase-2 inhibitors” (Nicox S.A., priority 2002, dated 2010).

The structures appear in SMILES notation.

Data set [1] is described as follows: Gastric tolerability after two weeks oral treatment in L-NAME hypertensive rats. In kind it is in vivo. To be noted: 10 mg/kg daily for two weeks, hypertension induced by L-NAME 400 mg/liter in drinking water. The method, then:
(§1) The experiment was carried out according to the method described by M. N. Muscarà et al. Br. J. Pharmacol. 133, 1314, 2001, and employing groups of 10 rats weighing each 200-250 g.
(§2) The compounds, suspended in 1% carboxymethylcellulose, were administered orally for two weeks at a daily dose of 10 mg/kg body weight.
(§3) Hypertension was induced by addition of L-NAME (N-omega-nitro-L-arginine methylester) to the drinking water at a concentration of 400 mg/liter. At the end of the treatment, the blood pressure was determined by introduction of a cannula into femoral artery and measurement with polygraphic transducer, 16 hours after the last administration.

A short description of data set [2]: Blood pressure effect after two weeks oral treatment in L-NAME hypertensive rats. The note with it: 10 mg/kg daily for two weeks, L-NAME in drinking water, femoral artery cannula, 16 hours after the last administration. The data set is classed as in vivo. As for the experimental part:
as §1, §2, §3

As for `Cc1ccc(-c2cc(C(F)(F)F)nn2-c2ccc(S(N)(=O)=O)cc2)cc1` [celecoxib, 4-[5-(4-methylphenyl)-3-(trifluoromethyl)-1H-pyrazol-1-yl]benzenesulfon-amide], the “gastric damage, share of the treated animals” value in data set [1] was 80%. Moreover, the “increase of the blood pressure (average)” value in data set [2] is listed as 15 mmHg.
`Cc1ccc(-c2cc(C(F)(F)F)nn2-c2ccc(S(=O)(=O)NC(=O)CCCO[N+](=O)[O-])cc2)cc1` [Example 4, N-[4-[5-(4-methylphenyl)-3-(trifluoromethyl)-1H-pyrazol-1-yl]phenylsulfonyl]-4-nitrooxy-butanamide]: the gastric tolerability entry in data set [1] is recorded as “well tolerated”. The “effect on blood pressure” value in data set [2] is “no increase of the blood pressure”.
